Values joined by “and” are separate entries in the source; they are usually repeats but may differ in a detail not shown here. Equal entries are not always repeated.
What was measured:
Assay in all cases: radiometric filter-binding kinase assay
[1] = biological target: BTK (human) (UniProt Q06187)
[2] = biological target: NUAK1 (human) (UniProt O60285)
[3] = biological target: MARK3 (human) (UniProt P27448)
[4] = biological target: EPHB3 (human) (UniProt P54753)
[5] = biological target: PAK6 (human) (UniProt Q9NQU5)
[6] = biological target: BRSK1 (human) (UniProt Q8TDC3)
[7] = biological target: FGFR1 (human) (UniProt P11362)
[8] = biological target: PDPK1 (human) (UniProt O15530)
[9] = biological target: DYRK2 (human) (UniProt Q92630)
[10] = biological target: MKNK2 (human) (UniProt Q9HBH9)
[11] = biological target: STK16 (human) (UniProt O75716)
[12] = biological target: DYRK1A (human) (UniProt Q13627)
[13] = biological target: MAPK11 (human) (UniProt Q15759)
[14] = biological target: STK11 CAB39 STRADA (human) (UniProt Q9Y376+Q7RTN6+Q15831)
[15] = biological target: EIF2AK3 (human) (UniProt Q9NZJ5)
[16] = biological target: PRKCA (human) (UniProt P17252)
[17] = biological target: CDK2 CCNA2 (human) (UniProt P20248+P24941)
[18] = biological target: CAMKK2 (human) (UniProt Q96RR4)
[19] = biological target: PLK1 (human) (UniProt P53350)
[20] = biological target: MAPK9 (human) (UniProt P45984)
[21] = biological target: MAPK8 (human) (UniProt P45983)
[22] = biological target: PKN2 (human) (UniProt Q16513)
[23] = biological target: EPHB1 (human) (UniProt P54762)
[24] = biological target: MYLK (human) (UniProt Q15746)
[25] = tested on: AKT2 (human), P31751 [S474D]
[26] = biological target: CSNK2A1 (human) (UniProt P68400)
[27] = biological target: TLK1 (human) (UniProt Q9UKI8)
[28] = biological target: HIPK3 (human) (UniProt Q9H422)

Sequence of TLK1 (human) (Q9UKI8 whole entry, looked up): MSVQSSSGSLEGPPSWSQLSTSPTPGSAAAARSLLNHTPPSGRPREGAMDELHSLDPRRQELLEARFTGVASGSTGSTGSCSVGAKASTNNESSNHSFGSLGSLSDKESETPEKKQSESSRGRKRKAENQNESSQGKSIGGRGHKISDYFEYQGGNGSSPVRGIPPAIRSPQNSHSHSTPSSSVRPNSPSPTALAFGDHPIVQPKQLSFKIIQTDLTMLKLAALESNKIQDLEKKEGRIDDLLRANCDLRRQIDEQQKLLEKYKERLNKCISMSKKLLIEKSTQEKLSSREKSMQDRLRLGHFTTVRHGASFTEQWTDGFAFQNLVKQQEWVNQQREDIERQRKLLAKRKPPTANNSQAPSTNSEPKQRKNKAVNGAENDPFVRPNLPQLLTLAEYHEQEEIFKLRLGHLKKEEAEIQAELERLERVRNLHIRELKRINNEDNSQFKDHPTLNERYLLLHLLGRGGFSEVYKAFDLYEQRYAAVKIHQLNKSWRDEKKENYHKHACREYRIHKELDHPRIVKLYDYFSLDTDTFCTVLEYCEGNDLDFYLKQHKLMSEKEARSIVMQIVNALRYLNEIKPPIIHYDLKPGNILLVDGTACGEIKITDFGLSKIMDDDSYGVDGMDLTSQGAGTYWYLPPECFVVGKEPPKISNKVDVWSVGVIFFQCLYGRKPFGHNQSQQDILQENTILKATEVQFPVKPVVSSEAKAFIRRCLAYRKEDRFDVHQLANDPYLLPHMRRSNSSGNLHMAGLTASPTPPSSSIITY
Sequence of NUAK1 (human) (O60285 whole entry, looked up): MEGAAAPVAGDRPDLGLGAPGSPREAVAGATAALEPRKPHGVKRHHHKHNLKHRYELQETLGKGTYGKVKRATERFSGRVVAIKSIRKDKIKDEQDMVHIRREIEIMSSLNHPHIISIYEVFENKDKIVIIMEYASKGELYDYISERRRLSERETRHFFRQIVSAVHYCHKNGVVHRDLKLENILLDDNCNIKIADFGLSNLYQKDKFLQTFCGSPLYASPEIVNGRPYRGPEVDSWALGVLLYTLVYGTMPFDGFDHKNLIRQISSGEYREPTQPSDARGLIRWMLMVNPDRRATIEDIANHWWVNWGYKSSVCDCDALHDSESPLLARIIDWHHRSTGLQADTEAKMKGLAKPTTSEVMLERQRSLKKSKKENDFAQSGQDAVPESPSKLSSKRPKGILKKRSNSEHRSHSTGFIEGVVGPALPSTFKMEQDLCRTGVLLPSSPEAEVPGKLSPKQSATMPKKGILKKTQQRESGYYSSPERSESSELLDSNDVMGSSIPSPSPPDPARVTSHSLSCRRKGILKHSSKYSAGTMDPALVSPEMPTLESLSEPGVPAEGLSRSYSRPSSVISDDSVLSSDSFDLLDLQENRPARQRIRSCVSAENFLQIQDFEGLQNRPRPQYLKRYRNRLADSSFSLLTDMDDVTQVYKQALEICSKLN
Sequence of EPHB1 (human) (P54762 whole entry, looked up): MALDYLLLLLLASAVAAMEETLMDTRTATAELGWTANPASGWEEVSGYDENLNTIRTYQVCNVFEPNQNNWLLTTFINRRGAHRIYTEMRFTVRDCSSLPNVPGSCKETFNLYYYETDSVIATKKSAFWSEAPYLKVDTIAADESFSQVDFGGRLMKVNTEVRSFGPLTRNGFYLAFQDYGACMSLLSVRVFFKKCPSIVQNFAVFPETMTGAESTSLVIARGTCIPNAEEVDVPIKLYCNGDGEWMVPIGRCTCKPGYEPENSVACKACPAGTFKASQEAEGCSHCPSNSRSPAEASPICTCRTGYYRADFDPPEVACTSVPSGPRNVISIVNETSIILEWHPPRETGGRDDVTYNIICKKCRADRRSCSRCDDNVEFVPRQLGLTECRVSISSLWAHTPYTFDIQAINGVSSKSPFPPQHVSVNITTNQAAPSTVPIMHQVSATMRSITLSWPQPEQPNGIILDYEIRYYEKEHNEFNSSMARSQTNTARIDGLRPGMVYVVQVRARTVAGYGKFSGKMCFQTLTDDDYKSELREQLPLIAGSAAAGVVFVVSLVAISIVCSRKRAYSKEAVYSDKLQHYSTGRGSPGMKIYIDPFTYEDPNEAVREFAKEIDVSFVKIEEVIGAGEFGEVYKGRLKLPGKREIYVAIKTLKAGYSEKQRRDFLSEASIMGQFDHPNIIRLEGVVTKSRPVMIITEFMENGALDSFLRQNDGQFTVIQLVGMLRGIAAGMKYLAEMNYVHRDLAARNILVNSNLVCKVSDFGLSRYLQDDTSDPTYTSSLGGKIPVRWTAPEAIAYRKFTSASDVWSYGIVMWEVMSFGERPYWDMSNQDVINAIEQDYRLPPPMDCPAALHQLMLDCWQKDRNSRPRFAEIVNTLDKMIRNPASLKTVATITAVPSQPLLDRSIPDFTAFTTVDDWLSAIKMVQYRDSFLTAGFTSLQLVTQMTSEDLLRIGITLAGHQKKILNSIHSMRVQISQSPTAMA
Sequence of MKNK2 (human) (Q9HBH9 whole entry, looked up): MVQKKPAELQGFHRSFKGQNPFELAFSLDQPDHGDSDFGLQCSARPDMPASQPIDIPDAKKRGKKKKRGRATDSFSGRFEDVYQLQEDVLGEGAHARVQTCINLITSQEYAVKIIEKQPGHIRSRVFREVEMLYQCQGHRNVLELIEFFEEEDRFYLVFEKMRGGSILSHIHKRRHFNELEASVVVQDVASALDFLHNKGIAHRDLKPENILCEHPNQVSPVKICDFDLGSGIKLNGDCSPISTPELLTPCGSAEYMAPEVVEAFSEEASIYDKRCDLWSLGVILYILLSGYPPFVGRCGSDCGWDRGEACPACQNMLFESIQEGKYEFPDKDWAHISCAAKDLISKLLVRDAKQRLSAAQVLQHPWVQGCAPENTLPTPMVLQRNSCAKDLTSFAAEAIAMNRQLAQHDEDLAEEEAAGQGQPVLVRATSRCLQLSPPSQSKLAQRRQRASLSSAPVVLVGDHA
Sequence of DYRK2 (human) (Q92630 whole entry, looked up): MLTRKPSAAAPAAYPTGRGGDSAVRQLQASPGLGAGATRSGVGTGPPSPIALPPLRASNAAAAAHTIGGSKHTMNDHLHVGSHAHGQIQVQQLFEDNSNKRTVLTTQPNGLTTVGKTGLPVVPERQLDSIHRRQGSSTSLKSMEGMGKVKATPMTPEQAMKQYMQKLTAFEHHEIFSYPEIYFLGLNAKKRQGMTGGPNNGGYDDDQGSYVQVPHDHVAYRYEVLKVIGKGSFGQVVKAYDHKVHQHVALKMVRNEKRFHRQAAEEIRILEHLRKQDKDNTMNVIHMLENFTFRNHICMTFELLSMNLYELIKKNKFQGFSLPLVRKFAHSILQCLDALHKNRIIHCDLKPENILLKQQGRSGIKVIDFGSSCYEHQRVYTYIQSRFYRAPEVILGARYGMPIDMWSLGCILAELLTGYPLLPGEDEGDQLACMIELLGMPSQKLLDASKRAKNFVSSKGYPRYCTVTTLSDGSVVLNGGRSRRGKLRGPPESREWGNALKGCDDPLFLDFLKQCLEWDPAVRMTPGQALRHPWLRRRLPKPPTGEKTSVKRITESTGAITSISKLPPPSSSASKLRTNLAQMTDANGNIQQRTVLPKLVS
Sequence of STK11 CAB39 STRADA (human) (Q15831 whole entry, looked up): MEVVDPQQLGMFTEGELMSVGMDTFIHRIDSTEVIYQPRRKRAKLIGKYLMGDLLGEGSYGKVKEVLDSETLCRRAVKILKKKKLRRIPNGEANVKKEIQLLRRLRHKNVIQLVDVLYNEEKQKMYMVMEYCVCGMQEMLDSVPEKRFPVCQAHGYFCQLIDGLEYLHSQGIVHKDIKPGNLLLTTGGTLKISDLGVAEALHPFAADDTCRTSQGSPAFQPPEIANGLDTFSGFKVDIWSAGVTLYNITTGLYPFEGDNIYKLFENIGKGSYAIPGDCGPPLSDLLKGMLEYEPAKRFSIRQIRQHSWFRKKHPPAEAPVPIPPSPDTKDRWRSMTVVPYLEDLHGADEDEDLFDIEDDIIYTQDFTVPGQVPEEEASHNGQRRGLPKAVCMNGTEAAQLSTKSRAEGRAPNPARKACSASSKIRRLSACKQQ
Sequence of STK11 CAB39 STRADA (human) (Q7RTN6 whole entry, looked up): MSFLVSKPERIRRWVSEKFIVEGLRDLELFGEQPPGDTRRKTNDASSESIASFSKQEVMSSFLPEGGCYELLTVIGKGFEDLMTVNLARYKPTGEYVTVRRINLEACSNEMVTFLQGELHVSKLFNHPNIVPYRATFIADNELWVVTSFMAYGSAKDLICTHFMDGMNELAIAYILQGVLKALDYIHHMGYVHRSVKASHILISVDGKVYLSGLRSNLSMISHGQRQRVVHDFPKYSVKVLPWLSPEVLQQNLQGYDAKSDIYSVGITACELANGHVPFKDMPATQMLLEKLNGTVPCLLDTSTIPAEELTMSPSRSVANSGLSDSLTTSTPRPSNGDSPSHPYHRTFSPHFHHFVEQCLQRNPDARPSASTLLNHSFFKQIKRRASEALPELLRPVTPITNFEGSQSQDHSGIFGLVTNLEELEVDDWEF
Sequence of STK11 CAB39 STRADA (human) (Q9Y376 whole entry, looked up): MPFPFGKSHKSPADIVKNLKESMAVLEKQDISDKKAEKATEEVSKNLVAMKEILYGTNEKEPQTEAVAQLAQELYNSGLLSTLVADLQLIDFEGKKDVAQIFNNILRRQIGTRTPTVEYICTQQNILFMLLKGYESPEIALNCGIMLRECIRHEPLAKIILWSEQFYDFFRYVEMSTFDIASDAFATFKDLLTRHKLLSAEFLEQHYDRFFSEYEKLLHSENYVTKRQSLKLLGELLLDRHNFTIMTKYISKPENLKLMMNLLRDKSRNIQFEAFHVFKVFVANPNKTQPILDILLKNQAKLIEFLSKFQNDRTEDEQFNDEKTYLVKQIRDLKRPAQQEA
Sequence of STK16 (human) (O75716 whole entry, looked up): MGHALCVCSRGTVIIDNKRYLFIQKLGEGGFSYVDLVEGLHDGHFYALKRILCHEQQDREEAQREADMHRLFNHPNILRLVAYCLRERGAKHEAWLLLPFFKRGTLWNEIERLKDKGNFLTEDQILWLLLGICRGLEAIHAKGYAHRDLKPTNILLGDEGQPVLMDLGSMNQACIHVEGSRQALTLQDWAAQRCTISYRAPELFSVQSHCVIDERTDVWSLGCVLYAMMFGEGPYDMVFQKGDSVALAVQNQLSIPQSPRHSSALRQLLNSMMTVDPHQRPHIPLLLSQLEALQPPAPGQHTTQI

**Q.** What does the source list for `CCN1CCN(Cc2ccc(NC(=O)c3ccc(C)c(Oc4ccnc5[nH]ccc45)c3)cc2C(F)(F)F)CC1`?
**A.** residual activity ([1]; compound 0.1 µM): 103%; residual activity ([1]; compound 1.0 µM): 85.3%; residual activity ([1]; compound 10.0 µM): 34.2%; residual activity ([2]; compound 0.1 µM): 85.8%; residual activity ([2]; compound 1.0 µM): 90.5%; residual activity ([2]; compound 10.0 µM): 84.9%; residual activity ([3]; compound 0.1 µM): 112%; residual activity ([3]; compound 1.0 µM): 99.5%; residual activity ([3]; compound 10.0 µM): 105%; residual activity ([4]; compound 0.1 µM): 96.6%; residual activity ([4]; compound 1.0 µM): 29.5%; residual activity ([4]; compound 10.0 µM): 7.66%; residual activity ([5]; compound 0.1 µM): 104%; residual activity ([5]; compound 1.0 µM): 90.4%; residual activity ([5]; compound 10.0 µM): 94%; residual activity ([6]; compound 0.1 µM): 101%; residual activity ([6]; compound 1.0 µM): 96.2%; residual activity ([6]; compound 10.0 µM): 109%; residual activity ([7]; compound 0.1 µM): 79.1%; residual activity ([7]; compound 1.0 µM): 23.5%; residual activity ([7]; compound 10.0 µM): 8.48%; residual activity ([8]; compound 0.1 µM): 101% and 98%; residual activity ([8]; compound 1.0 µM): 100% and 86.1%; residual activity ([9]; compound 0.1 µM): 102%; residual activity ([9]; compound 1.0 µM): 101%; residual activity ([9]; compound 10.0 µM): 94.5%; residual activity ([10]; compound 0.1 µM): 109%; residual activity ([10]; compound 1.0 µM): 112%; residual activity ([10]; compound 10.0 µM): 82.8%; residual activity ([11]; compound 0.1 µM): 103%; residual activity ([11]; compound 1.0 µM): 90.7%; residual activity ([11]; compound 10.0 µM): 99.2%; residual activity ([12]; compound 0.1 µM): 107%; residual activity ([12]; compound 1.0 µM): 97.8%; residual activity ([12]; compound 10.0 µM): 84.9%; residual activity ([13]; compound 0.1 µM): 74.9%; residual activity ([13]; compound 1.0 µM): 16.6%; residual activity ([13]; compound 10.0 µM): 9.04%; residual activity ([14]; compound 0.1 µM): 117%; residual activity ([14]; compound 1.0 µM): 107%; residual activity ([14]; compound 10.0 µM): 129%; residual activity ([15]; compound 0.1 µM): 98.8%; residual activity ([15]; compound 1.0 µM): 64.6%; residual activity ([15]; compound 10.0 µM): 21.4%; residual activity ([16]; compound 0.1 µM): 94%; residual activity ([16]; compound 1.0 µM): 84.4%; residual activity ([16]; compound 10.0 µM): 90.5%; residual activity ([17]; compound 0.1 µM): 110%; residual activity ([17]; compound 1.0 µM): 112%; residual activity ([17]; compound 10.0 µM): 99.9%; residual activity ([18]; compound 0.1 µM): 98.3%; residual activity ([18]; compound 1.0 µM): 70.7%; residual activity ([18]; compound 10.0 µM): 20.7%; residual activity ([19]; compound 0.1 µM): 103%; residual activity ([19]; compound 1.0 µM): 91.6%; residual activity ([19]; compound 10.0 µM): 95%; residual activity ([20]; compound 0.1 µM): 90.8%; residual activity ([20]; compound 1.0 µM): 21.8%; residual activity ([20]; compound 10.0 µM): 4.89%; residual activity ([21]; compound 0.1 µM): 93.8%; residual activity ([21]; compound 1.0 µM): 61.6%; residual activity ([21]; compound 10.0 µM): 14.4%; residual activity ([22]; compound 0.1 µM): 102%; residual activity ([22]; compound 1.0 µM): 93.3%; residual activity ([22]; compound 10.0 µM): 78.6%; residual activity ([23]; compound 0.1 µM): 111%; residual activity ([23]; compound 1.0 µM): 106%; residual activity ([23]; compound 10.0 µM): 66.9%; residual activity ([24]; compound 0.1 µM): 109%; residual activity ([24]; compound 1.0 µM): 89.4%; residual activity ([24]; compound 10.0 µM): 76.7%; residual activity ([25]; compound 0.1 µM): 105%; residual activity ([25]; compound 1.0 µM): 114%; residual activity ([25]; compound 10.0 µM): 49.3%; residual activity ([26]; compound 0.1 µM): 90.2%; residual activity ([26]; compound 1.0 µM): 94.1%; residual activity ([26]; compound 10.0 µM): 98.5%; residual activity ([27]; compound 0.1 µM): 107%; residual activity ([27]; compound 1.0 µM): 92.2%; residual activity ([27]; compound 10.0 µM): 92.1%; residual activity ([28]; compound 0.1 µM): 110%; residual activity ([28]; compound 1.0 µM): 70.3%; residual activity ([28]; compound 10.0 µM): 19.8%
